KI (inactivation) data for one compound are collected here from publication PMC11736000, “Structural and functional analysis of a bile salt hydrolase from the bison microbiome” (The Journal of Biological Chemistry, 2024).

The assay concerns the target T1, bile salt hydrolase from Arthrobacter citreus EINP1 (BSHAc) (Arthrobacter citreus, UniProt A0ABZ2ZT44).
T1 construct: gene bsh; C-terminally hexahistidine-tagged recombinant BSHAc; NCBI WP_342023006.1
The assay can be described thus: […] Å crystal structure of the covalent complex; time-dependent inactivation kinetics of the purified enzyme (kinact/KI […] ^-1s^-1). The format is biochemical.

T1 sequence (A0ABZ2ZT44 entry or part of it): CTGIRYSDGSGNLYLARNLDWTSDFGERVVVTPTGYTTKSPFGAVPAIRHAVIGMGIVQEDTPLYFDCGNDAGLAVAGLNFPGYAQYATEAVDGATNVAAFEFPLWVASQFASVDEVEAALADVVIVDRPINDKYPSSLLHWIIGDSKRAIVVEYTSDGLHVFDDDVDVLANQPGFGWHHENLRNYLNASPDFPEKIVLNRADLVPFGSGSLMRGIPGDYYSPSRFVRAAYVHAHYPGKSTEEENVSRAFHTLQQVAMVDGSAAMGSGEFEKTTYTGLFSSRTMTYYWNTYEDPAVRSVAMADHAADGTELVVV

Turning to `C[C@H](CCC(=O)CF)[C@H]1CC[C@H]2[C@@H]3CC[C@@H]4C[C@H](OS(=O)(=O)O)CC[C@]4(C)[C@H]3CC[C@]12C` [AAA-10], the KI (inactivation) is 23 µM.
